From patent US6306846A, “Anti-inflammatory and anti-ulcer compounds and process” (priority 1995, dated 2001) come the findings set out here.

Series [1] in a line: Anti-inflammatory test models, overall statement. It counts as in vivo, rat. Conditions: using only one test model. An excerpt: In order to test the anti-inflammatory activities of my copper coordination compounds, the following test models were employed:
(§1) (1) Carrageen in Foot Edema Model as described in Experentia, 6, pp. 469-71, "Zur Frage des Mechanis Mos der Hemmung des Bindegebswachstums durch Cortisone" (1950);
(2) Cotton Wad Granuloma Model as described in J. Pharmacol. Expt'l. Ther., 141, pp. 369-76, "Anti-inflammatory and Antipyretic Activities of Indomethacin, 9-(p-chlorobenzoyl)-5-Methoxy-2-Methyl-Indole-3-Acetic Acid" (1963); and
(3) Polyarthritis Model as described in Nature, 224, pp. 1320-21, "Effect of Prostaglandin E2 on Adjuvant Arthritis" (1969).

Series [2] is described as follows: in vivo. To be noted: for TI CFE / TI PA / selectivity ratio: ratio of lethal dose to effective dose. An excerpt: In addition to the foregoing anti-inflammatory and anti-ulcer tests, several LD50 tests [performed in accordance with Miller et al, Proceed. of The Society of Expt'l. Medicine, 57, p.
The nature of series [3]: Carrageenin Foot Edema Model. The class given is in vivo, rat (male, Sprague Dawley). To be noted: hydrocortisone comparison; model not given. As for the experimental part:
as §1
The foregoing literature references were followed in the following tests unless otherwise stated and they are incorporated by reference herein. Each test model will only be briefly described. Each test model is a recognized and accepted model for testing drugs for the treatment of arthritis.
In this test model test rats were injected with carrageenin in a hind paw one hour after administration of the copper coordination compound. The carrageenin induced inflammation. The rats were male, of the Sprague Dawley variety and weighed on the average 120 grams. The copper coordination compounds were first introduced subcutaneously. The dosages were compounded as follows:
The suspending agent was Tween 80, a nonionic surfactant sold by the Atlas Powder Company. A full description of it is contained at p. 648 of Remingtons Practice of Pharmacy (11th ed., Martin & Cook, The Mack Publishing Co., Easton Pa. 1956). Generally they may be described as a complex mixture of polyoxyethylene ethers of mixed oleic esters of sorbitol anhydrides. The initial screening dosage was 25 mg of the copper coordination compound given in one injection to ten rats. Compounds which were active received further testing at 5.0 mg and lower dosages. Each dosage was administered to at least ten rats. A dose was rated active if it caused a significant decrease (P<0.05) in the circumference of the feet injected with carrageenin six hours after administration. […] As a reference standard, saline solution plus suspending agent was subcutaneously administered to each of the ten rats.
In general terms: The carrageenan paw model is a standard test of acute inflammation.

For `N[C@@H](Cc1c[nH]c2ccccc12)C(=O)[O-].N[C@@H](Cc1c[nH]c2ccccc12)C(=O)[O-].[Cu+2]` (racemic) [Example 16, Bis(D,L-tryptophanato(O,N)copper(II)], the “anti-inflammatory activity at the initial screening tests” value (shortened to “anti-inflammatory activity”) in series [1] is “no anti-inflammatory activity”.

Consider `NC(Cc1c[nH]c2ccccc12)C(=O)[O-].NC(Cc1c[nH]c2ccccc12)C(=O)[O-].[Cu+2]` [Example 1, Bis-L-tryptophanato(O,N)copper(II)], for which the “anti-inflammatory activity” value in series [1] is given as “no anti-inflammatory activity”.

The compound `Nc1ccccc1C(=O)[O-].Nc1ccccc1C(=O)[O-].[Cu+2]` [Example 3, Bisanthranilato(O,N)copper(II)] showed an LD50 in series [2] (SC) of 750 ± 106 mpk. The “TI CFE” value in series [2] (CFE (carrageenin foot edema)) is on record as 150. Further, the “TI PA” value in series [2] (PA (polyarthritis)) is on record as 750. In series [3], the “% potency compared with hydrocortisone” value came out at 60%.

`CC(C)c1cc(C(=O)[O-])c(O)c(C(C)C)c1.CC(C)c1cc(C(=O)[O-])c(O)c(C(C)C)c1.[Cu+2]` [Example 4] yielded an LD50 in series [2] (SC) of 240 ± 33 mpk. Moreover, the “TI CFE” value in series [2] (CFE (carrageenin foot edema)) is 48. In addition, in series [2] (PA (polyarthritis)), the “TI PA” value stood at 240. Further, the “% potency compared with hydrocortisone” value in series [3] was 50%.

In turn, `CC(=O)Oc1ccccc1C(=O)[O-].CC(=O)Oc1ccccc1C(=O)[O-].CC(=O)Oc1ccccc1C(=O)[O-].CC(=O)Oc1ccccc1C(=O)[O-].[Cu+2].[Cu+2]` [Example 5, Tetra(μ-acetylsalicylato)biscopper(II)] registered an LD50 in series [2] (SC) of 760 ± 100 mpk. Further, in series [2] (CFE (carrageenin foot edema)), the “TI CFE” value is listed as 150. Further, the “TI PA” value in series [2] (PA (polyarthritis)) was determined as 760. In addition, in series [3], the “% potency compared with hydrocortisone” value came to 130%.

Consider `CC(=O)Oc1ccccc1C(=O)O` [aspirin, acetylsalicylic acid], for which the LD50 in series [2] (in vivo) stood at 790 mg/kg; in series [2] (in vivo, po) it was 1500 mg/kg. Besides, the “% potency compared with hydrocortisone” value in series [3] was 6%.

For `CC(=O)[O-].CC(=O)[O-].[Cu+2]` [cupric acetate], in series [2] (SC), the LD50 was found to be 350 mpk. Further, in series [2] (CFE (carrageenin foot edema)), the “TI CFE” value came to 70. Further, the “TI PA” value in series [2] (PA (polyarthritis)) turned out to be 0. The “% potency compared with hydrocortisone” value in series [3] is reported as 340%.

In the case of `O=C(O)c1cccnc1Nc1cccc(C(F)(F)F)c1` [tpan, 2[3(trifluoro-methyl)phenyl]aminonicotinic acid], the selectivity ratio in series [2] (in vivo, TI CFE, CFE (carrageenin foot edema)) is 15; in series [2] (in vivo, TI PA, PA (polyarthritis)), 74. In addition, the LD50 in series [2] (in vivo, po) is 370 ± 25 mg/kg. Further, the “% potency compared with hydrocortisone” value in series [3] amounted to 31%.

For the compound “(3-p-chlorophenyl-3,4,5,6-tetrahydro-β-carboline-5-carboxylato)2n-(aqua)2n -copper(II)n [Example 30]”, the “anti-inflammatory activity” value in series [1] is listed as “no anti-inflammatory activity”.

For “(17-Hydroxy-3-oxo-17α-pregn-4,6-diene-21-carboxalato)2n -(aqua)2n -copper(II)n [Example 41]”, in series [1], the “anti-inflammatory activity” value is “no anti-inflammatory activity”.

With “(D-penicillaminato)2n -(aqua)2n -copper(II)n [Example 8]”, the “anti-inflammatory activity” value in series [1] was “no anti-inflammatory activity”.

In the case of “[2[3(trifluoromethyl)phenyl]aminonicotinato]2n -(aqua)n -copper(II)n [Example 6]”, the LD50 in series [2] (SC) amounted to 650 ± 80 mpk. Besides, the “TI CFE” value in series [2] (CFE (carrageenin foot edema)) worked out at 130. Moreover, the “TI PA” value in series [2] (PA (polyarthritis)) amounted to 650. The “% potency compared with hydrocortisone” value in series [3] is given as 180%.
